The source of these data is ChEMBL document CHEMBL4261555, “Identification of a potent kinase inhibitor targeting EML4-ALK fusion protein in non-small cell lung cancer” (Medchemcomm, 2017).

The term pIC50 denotes −log10 of the IC50, conventionally taken in molar units. Read a low pIC50 as a large IC50. Broadly, the pEC50 is the negative decadic logarithm of the EC50, by convention in mol/L. A high value points to a small EC50.

For assay [1], the system named is NCI-H2228. As to the kind of experiment: Anticlonogenic activity against human NCI-H2228 cells treated every 3 days for 10 days by crystal violet staining based assay. In kind it is functional, cell-based.
For assay [2], the target named is T1, ALK tyrosine kinase receptor (Homo sapiens, UniProt Q9UM73). In words: Inhibition of EML4-fused ALK in human NCI-H2228 cells assessed as suppression of AKT phosphorylation after 48 hrs by Western blot method. In kind it is cell-based.
Target sequence in this assay (Q9UM73 19-1620 limits assumed): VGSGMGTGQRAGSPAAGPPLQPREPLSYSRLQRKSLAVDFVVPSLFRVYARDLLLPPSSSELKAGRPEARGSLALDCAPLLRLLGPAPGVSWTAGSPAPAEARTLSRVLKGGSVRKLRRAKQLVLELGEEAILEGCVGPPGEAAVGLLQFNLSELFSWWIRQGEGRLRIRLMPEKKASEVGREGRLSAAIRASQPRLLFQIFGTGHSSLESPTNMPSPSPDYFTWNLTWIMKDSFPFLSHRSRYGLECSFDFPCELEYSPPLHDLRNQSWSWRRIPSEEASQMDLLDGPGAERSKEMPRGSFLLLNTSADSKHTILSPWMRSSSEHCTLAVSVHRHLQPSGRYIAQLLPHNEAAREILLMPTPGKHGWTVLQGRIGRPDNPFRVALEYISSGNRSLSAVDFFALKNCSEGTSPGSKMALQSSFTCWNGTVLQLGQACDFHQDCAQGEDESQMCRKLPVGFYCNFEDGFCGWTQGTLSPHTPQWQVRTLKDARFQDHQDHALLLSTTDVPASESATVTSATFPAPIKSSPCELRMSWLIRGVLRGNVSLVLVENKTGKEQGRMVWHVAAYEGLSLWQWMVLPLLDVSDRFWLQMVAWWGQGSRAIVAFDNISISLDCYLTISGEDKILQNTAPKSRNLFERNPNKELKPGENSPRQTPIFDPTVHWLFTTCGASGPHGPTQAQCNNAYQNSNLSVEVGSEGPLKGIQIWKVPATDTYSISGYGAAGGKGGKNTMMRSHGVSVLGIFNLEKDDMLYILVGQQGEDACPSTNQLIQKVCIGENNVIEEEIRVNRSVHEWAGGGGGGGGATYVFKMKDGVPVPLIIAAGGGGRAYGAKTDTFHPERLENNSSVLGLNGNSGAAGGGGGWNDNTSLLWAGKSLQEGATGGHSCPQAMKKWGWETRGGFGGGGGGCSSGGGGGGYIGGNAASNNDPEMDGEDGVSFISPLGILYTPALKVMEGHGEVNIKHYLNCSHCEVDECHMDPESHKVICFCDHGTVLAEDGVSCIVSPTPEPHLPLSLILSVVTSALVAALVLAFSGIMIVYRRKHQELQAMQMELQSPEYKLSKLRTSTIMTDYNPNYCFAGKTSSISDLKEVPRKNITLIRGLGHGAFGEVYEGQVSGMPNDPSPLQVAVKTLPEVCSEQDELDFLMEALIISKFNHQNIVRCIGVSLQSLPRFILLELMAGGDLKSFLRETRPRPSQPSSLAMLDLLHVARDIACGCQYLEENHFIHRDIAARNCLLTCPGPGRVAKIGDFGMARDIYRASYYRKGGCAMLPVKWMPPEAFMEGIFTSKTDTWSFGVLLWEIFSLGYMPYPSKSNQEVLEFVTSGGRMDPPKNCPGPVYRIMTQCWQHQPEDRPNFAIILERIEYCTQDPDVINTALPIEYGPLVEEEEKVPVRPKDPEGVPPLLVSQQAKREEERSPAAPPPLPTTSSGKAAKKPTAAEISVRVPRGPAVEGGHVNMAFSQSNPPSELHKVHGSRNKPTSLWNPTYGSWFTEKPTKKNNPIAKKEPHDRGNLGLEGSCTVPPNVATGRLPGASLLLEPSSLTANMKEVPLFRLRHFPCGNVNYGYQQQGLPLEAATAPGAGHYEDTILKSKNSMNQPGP
Assay [3] deals with NCI-H2228. In words: Induction of apoptosis in human NCI-H2228 cells at 10 uM after 48 hrs by annexin V-FITC/propidium iodide staining-based flow cytometric method (reference value: 4.5%). In kind it is functional.
The test system of assay [4] is NCI-H2228. As to the kind of experiment: Induction of apoptosis in human NCI-H2228 cells after 48 hrs by annexin V-FITC/propidium iodide staining-based flow cytometric method. The class given is functional, cell-based. A general note: Flow cytometry measures light scatter and fluorescence of single cells or particles in a stream.
Assay [5] addresses T1, ALK tyrosine kinase receptor. In words: Inhibition of EML4-fused ALK in human NCI-H2228 cells assessed as suppression of STAT3 phosphorylation after 48 hrs by Western blot method. In kind it is cell-based. (In western blotting, separated proteins are transferred to a membrane and probed.)
Target sequence in this assay (Q9UM73 19-1620 limits assumed): as above
Assay [6] has as its system NCI-H2228. In words: cells. The conditions noted are these: Homo sapiens, NCI-H2228, 72 h.
Description: (§1) Cytotoxicity against human NCI-H2228 cells harboring EML4-ALK fusion protein assessed as decrease in cell viability after 72 hrs by MTT assay
The subject of assay [7] is NCI-H2228. As to the kind of experiment: Induction of apoptosis in human NCI-H2228 cells at 5 uM after 48 hrs by annexin V-FITC/propidium iodide staining-based flow cytometric method (reference value: 4.5%). In kind it is functional.
The target of assay [8] is T1, ALK tyrosine kinase receptor.
Target sequence in this assay (Q9UM73 whole entry, the tested form may be a part): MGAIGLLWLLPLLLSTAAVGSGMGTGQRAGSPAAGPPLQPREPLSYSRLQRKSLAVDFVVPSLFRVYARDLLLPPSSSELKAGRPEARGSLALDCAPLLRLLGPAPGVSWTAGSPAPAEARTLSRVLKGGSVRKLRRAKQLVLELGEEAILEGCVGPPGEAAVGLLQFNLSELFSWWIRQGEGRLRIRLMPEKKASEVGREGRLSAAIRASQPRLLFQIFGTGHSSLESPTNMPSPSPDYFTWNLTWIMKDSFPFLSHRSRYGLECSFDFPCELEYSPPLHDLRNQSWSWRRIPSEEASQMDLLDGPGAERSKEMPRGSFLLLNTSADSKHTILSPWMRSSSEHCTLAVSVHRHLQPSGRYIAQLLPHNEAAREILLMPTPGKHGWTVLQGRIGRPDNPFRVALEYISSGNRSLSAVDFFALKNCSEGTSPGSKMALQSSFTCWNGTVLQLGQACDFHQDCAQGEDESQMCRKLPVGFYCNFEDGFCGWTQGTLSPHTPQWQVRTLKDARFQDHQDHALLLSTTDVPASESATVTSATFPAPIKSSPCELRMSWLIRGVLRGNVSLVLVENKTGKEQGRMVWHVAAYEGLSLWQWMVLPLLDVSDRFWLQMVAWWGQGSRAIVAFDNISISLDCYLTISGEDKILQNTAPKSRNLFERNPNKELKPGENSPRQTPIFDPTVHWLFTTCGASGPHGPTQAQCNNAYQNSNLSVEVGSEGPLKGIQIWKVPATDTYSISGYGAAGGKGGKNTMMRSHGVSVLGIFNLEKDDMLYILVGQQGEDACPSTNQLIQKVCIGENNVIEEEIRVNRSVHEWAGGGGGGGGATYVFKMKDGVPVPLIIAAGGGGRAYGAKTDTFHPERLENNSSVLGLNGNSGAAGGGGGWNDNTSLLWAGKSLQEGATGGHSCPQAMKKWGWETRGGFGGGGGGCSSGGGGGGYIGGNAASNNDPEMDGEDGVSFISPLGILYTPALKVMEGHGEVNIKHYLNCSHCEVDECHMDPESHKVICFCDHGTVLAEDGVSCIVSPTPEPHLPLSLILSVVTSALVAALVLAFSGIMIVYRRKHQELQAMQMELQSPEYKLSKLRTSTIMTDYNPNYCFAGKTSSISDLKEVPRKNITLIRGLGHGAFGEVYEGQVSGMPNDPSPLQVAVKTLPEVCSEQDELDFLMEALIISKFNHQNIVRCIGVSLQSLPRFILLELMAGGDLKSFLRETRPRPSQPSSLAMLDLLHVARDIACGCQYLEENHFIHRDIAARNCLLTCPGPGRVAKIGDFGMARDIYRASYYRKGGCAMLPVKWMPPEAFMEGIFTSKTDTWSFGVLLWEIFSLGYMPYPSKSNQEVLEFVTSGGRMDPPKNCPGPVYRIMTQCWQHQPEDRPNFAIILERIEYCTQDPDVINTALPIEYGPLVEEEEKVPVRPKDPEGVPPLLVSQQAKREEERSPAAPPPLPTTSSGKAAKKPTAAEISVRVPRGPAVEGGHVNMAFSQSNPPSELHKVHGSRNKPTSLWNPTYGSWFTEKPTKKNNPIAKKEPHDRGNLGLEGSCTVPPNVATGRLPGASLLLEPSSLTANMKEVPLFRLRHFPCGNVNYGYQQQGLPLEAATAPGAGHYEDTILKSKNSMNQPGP
Description: Inhibition of recombinant ALK (unknown origin) after 1 hr by fluorescence assay
Assay [9] shares this target. In words: Inhibition of EML4-fused ALK in human NCI-H2228 cells assessed as suppression of ERK1/2 phosphorylation after 48 hrs by Western blot method. The class given is cell-based.
Target sequence in this assay (Q9UM73 19-1620 limits assumed): as the sequence (Q9UM73 19-1620 limits assumed) above
The target is the same in assay [10]. In words: Inhibition of EML4-fused ALK autophosphorylation at Tyr1282/1283 in human NCI-H2228 cells at 2.5 to 10 uM after 48 hrs by Western blot method. The class given is cell-based.
Target sequence in this assay (Q9UM73 19-1620 limits assumed): as above
Assay [11] has as its system NCI-H2228. The conditions noted are these: Homo sapiens.
Description: as §1

pEC50, pIC50: −log10 of the molar value. The source made the active and inactive calls. The calls are words filed in the database; no cut-off is given here.

As to `CC1=C(C)C2C(=O)N3N=C(NCCCN(C)C)c4ccccc4C3=NC2S1` (stereo unspecified), in the assay with NCI-H2228 [1], the outcome was Active. In addition, the inhibition entry in assay [2], in assay [5] and in [9] was “Dose-dependent effect” in each case. Also, the Activity in the assay on NCI-H2228 [3] was 37.5%; in the assay with NCI-H2228 [4], “Dose-dependent effect”; in the assay on NCI-H2228 [7], 23.5%; in the assay on NCI-H2228 [11], “Dose-dependent effect”. The compound further gave a pIC50 in the assay with NCI-H2228 [6] of 5.39. In addition, in assay [8], the pEC50 was 4.71. Besides, the inhibition entry in assay [10] was “Active”.
